Activity calls are given as the source filed them. The calls are words filed in the database; no cut-off is given here.
Legend:
[1] = test system: Mycobacterium tuberculosis; test: Binding affinity to Mycobacterium tuberculosis RpsA Ala438 deleted mutant C-terminal domain (285 to 476 residues) at 500 uM by STD based analysis
[2] = Binding affinity to Mycobacterium tuberculosis RpsA Ala438 deleted mutant C-terminal domain (285 to 476 residues) assessed as dissociation constant by fluorescence quenching titration based analysis
[3] = test system: Mycobacterium tuberculosis; test: Binding affinity to Mycobacterium tuberculosis RpsA Ala438 deleted mutant C-terminal domain (285 to 476 residues) assessed as quenching rate constant by fluorescence quenching titration based analysis

SMILES	Activity [1]	Kd [2] [µM]	Kq [3]
Cc1cccc(CNC(=O)COc2cc(O)c3c(=O)cc(-c4ccccc4)oc3c2)c1	Active	6.91	2.33 10^12/M/s
O=C(O)CSc1nc2nc[nH]c2c(=O)[nH]1	Active	5.11	1.91 10^12/M/s
Cc1ccc(CNC(=O)CSc2nc3nc[nH]c3c(=O)[nH]2)cc1	Active	8.5	3.68 10^12/M/s
CCOC(=O)CSc1nc2nc[nH]c2c(=O)[nH]1	Active	0.31	3.4 10^12/M/s
Cc1ccc(CNC(=O)COc2cc(O)c3c(=O)cc(-c4ccccc4)oc3c2)cc1	Active	1.64	6.64 10^12/M/s
Cc1cccc(CNC(=O)CSc2nc3nc[nH]c3c(=O)[nH]2)c1	Active	4.67	2.54 10^12/M/s
CC(Sc1nc(N)cc(N)n1)C(=O)O (centres undefined)		1.74	

From ChEMBL document CHEMBL4765294, “Discovery and evaluation of new compounds targeting ribosomal protein S1 in antibiotic-resistant Mycobacterium Tuberculosis” (Eur J Med Chem, 2020)
